Reference: the NIST ThermoML archive (doi:10.1016/j.fluid.2015.08.008)
Numbers after ± are expanded uncertainties.

How the values were obtained:
[1] = Boiling temperature at pressure P; conditions: Liquid, distillation unit - dew point temperature
[2] = 101.33 kPa, Liquid, Vibrating tube method

In the case of C1CCC2=NCCCN2CC1 [1,8-diaza-7-bicyclo[5.4.0]undecene], the “Boiling temperature at pressure P” value ([1]; 0.51 kPa) is reported as 102.62 ± 25 °C, the “Boiling temperature at pressure P” value ([1]; 0.71 kPa) is reported as 110.30 ± 20 °C and the “Boiling temperature at pressure P” value ([1]; 1.01 kPa) is reported as 116.2 ± 16 °C. The “Boiling temperature at pressure P” value ([1]; 1.31 kPa) was 122.00 ± 14 °C, the “Boiling temperature at pressure P” value ([1]; 1.51 kPa) was 124.60 ± 19 °C and the “Boiling temperature at pressure P” value ([1]; 1.71 kPa) was 127.70 ± 14 °C. The “Boiling temperature at pressure P” value ([1]; 2.01 kPa) was 130.80 ± 13 °C, the “Boiling temperature at pressure P” value ([1]; 2.31 kPa) was 133.90 ± 12 °C and the “Boiling temperature at pressure P” value ([1]; 2.51 kPa) was 136 ± 11 °C. For the same compound, the “Boiling temperature at pressure P” value ([1]; 3.01 kPa) was 139.72 ± 9.8 °C, the “Boiling temperature at pressure P” value ([1]; 3.31 kPa) was 143.00 ± 9.2 °C and the “Boiling temperature at pressure P” value ([1]; 3.51 kPa) was 143.80 ± 8.8 °C. The “Boiling temperature at pressure P” value ([1]; 4.01 kPa) was 147.87 ± 8.2 °C, the “Boiling temperature at pressure P” value ([1]; 4.21 kPa) was 149.07 ± 6.8 °C and the “Boiling temperature at pressure P” value ([1]; 4.51 kPa) was 150.98 ± 6.4 °C. The “Boiling temperature at pressure P” value ([1]; 5.01 kPa) was 153.77 ± 5.8 °C, the “Boiling temperature at pressure P” value ([1]; 5.31 kPa) was 154.70 ± 5.8 °C and the “Boiling temperature at pressure P” value ([1]; 6.31 kPa) was 159.30 ± 5.7 °C. The “Boiling temperature at pressure P” value ([1]; 7.31 kPa) was 164.1 ± 5.9 °C.

C1CN=C2CCCN2C1 [1,5-diazabicyclo[4.3.0]non-5-ene] gave a mass density ([2]; 293.15 K) of 1037.59 ± 0.065 kg/m3, a mass density ([2]; 298.15 K) of 1033.58 ± 0.063 kg/m3 and a mass density ([2]; 303.15 K) of 1029.56 ± 0.061 kg/m3. For the same compound, the mass density ([2]; 308.15 K) was 1025.52 ± 0.06 kg/m3, the mass density ([2]; 313.15 K) was 1021.49 ± 0.058 kg/m3 and the mass density ([2]; 318.15 K) was 1017.4 ± 0.056 kg/m3. For the same compound, the mass density ([2]; 323.15 K) was 1013.33 ± 0.054 kg/m3, the “Boiling temperature at pressure P” value ([1]; 0.71 kPa) was 85.69 ± 20 °C and the “Boiling temperature at pressure P” value ([1]; 0.91 kPa) was 90.86 ± 18 °C. For the same compound, the “Boiling temperature at pressure P” value ([1]; 0.92 kPa) was 91.46 ± 17 °C, the “Boiling temperature at pressure P” value ([1]; 1.39 kPa) was 98.20 ± 13 °C and the “Boiling temperature at pressure P” value ([1]; 1.41 kPa) was 98.90 ± 12 °C. For the same compound, the “Boiling temperature at pressure P” value ([1]; 1.87 kPa) was 105.99 ± 14 °C, the “Boiling temperature at pressure P” value ([1]; 2.81 kPa) was 114.1 ± 8.1 °C and the “Boiling temperature at pressure P” value ([1]; 2.86 kPa) was 114.66 ± 8.1 °C. For the same compound, the “Boiling temperature at pressure P” value ([1]; 3.37 kPa) was 117.81 ± 7.5 °C, the “Boiling temperature at pressure P” value ([1]; 3.88 kPa) was 120.18 ± 6.4 °C and the “Boiling temperature at pressure P” value ([1]; 5.11 kPa) was 127.00 ± 6.2 °C. For the same compound, the “Boiling temperature at pressure P” value ([1]; 5.53 kPa) was 128.91 ± 5.3 °C, the “Boiling temperature at pressure P” value ([1]; 6.11 kPa) was 131.70 ± 4.6 °C and the “Boiling temperature at pressure P” value ([1]; 7.15 kPa) was 134.78 ± 4.5 °C. For the same compound, the “Boiling temperature at pressure P” value ([1]; 8.11 kPa) was 139.00 ± 4.2 °C, the “Boiling temperature at pressure P” value ([1]; 9.4 kPa) was 142.40 ± 3.5 °C and the “Boiling temperature at pressure P” value ([1]; 10.12 kPa) was 144.50 ± 3.5 °C. The “Boiling temperature at pressure P” value ([1]; 12.14 kPa) was 149.60 ± 3.6 °C.
